Test results: patent US9802960B2 (MILLENNIUM PHARMACEUTICALS, INC., priority 2014, dated 2017)

What follows are molecules tested against Human VPS34 (Homo sapiens (Human), UniProt Q8NEB9) (assay: Human VPS34 enzyme assay (Adapta TR-FRET)). Details: compound concentration 1.11 μM; read-out: Percent Inhibition.
Type: biochemical

Sequence of Human VPS34 (Q8NEB9 whole entry): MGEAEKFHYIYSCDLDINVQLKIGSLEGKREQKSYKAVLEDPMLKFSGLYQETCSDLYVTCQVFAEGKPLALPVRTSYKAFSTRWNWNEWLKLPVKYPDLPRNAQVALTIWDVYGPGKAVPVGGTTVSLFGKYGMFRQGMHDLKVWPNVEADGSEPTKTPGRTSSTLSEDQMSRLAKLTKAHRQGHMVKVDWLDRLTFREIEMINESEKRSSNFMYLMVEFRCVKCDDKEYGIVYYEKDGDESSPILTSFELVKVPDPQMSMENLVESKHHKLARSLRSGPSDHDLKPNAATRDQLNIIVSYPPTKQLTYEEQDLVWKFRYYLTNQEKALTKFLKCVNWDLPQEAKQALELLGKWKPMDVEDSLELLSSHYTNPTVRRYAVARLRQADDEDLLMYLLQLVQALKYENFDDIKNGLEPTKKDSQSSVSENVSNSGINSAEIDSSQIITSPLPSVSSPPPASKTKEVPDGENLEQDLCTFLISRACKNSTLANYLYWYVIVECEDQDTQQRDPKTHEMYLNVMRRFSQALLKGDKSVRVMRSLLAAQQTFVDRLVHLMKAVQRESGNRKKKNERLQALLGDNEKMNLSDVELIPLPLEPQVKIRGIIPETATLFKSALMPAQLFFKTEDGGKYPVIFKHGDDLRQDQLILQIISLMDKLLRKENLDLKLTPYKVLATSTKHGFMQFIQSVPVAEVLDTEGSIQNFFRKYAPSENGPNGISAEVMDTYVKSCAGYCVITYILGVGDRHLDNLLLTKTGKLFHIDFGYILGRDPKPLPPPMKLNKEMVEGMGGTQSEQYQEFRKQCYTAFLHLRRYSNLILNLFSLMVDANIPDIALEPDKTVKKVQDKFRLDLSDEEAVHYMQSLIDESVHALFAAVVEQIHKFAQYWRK

Structure (SMILES)	inhibition at 1.11 µM
CC(=O)Nc1cc(-c2cnc(N)c(S(=O)(=O)C(C)C)c2)ccn1 [Compound I-175, N-[6-amino-5-(isopropylsulfonyl)-3,4′-bipyridin-2′-yl]acetamide]	> 99%
CC(=O)Nc1cc(-c2cnc3[nH]cc(S(=O)(=O)c4ccccc4)c3c2)ccn1 [Compound I-176, N-{4-[3-(phenylsulfonyl)-1H-pyrrolo[2,3-b]pyridin-5-yl]pyridin-2-yl}acetamide]	> 99%
CC(=O)Nc1cc(-c2cnc(C)c(NS(=O)(=O)c3ccc(F)cc3F)c2)c(C)cn1 [Compound I-177, N-(5-{[(2,4-difluorophenyl)sulfonyl]amino}-5′,6-dimethyl-3,4′-bipyridin-2′-yl)acetamide]	> 99%
CC(=O)Nc1cc(-c2cnc(C)c(NS(=O)(=O)c3cc(C)ccc3C)c2)ccn1 [Compound I-178, N-(5-{[(2,5-dimethylphenyl)sulfonyl]amino}-6-methyl-3,4′-bipyridin-2′-yl)acetamide]	> 99%
CC(=O)Nc1cc(-c2cnc(N)c(C(=O)Nc3cccc(F)c3F)c2)ccn1 [Compound I-179, 2′-acetamido-6-amino-N-(2,3-difluorophenyl)-3,4′-bipyridine-5-carboxamide]	> 99%
COC(=O)Nc1cc(-c2cncc(C(=O)C3CC3)c2)ccn1 [Compound I-180, methyl[5-(cyclopropylcarbonyl)-3,4′-bipyridin-2′-yl]carbamate]	> 99%
CC(=O)Nc1cc(-c2cnc(N)c(N3CCCS3(=O)=O)c2)ccn1 [Compound I-181, N-[6-amino-5-(1,1-dioxidoisothiazolidin-2-yl)-3,4′-bipyridin-2′-yl]acetamide]	> 99%
CC(=O)Nc1cc(-c2cnc(C)c(NS(=O)(=O)c3ccc(C)cc3F)c2)ccn1 [Compound I-182, N-(5-{[(2-fluoro-4-methylphenyl)sulfonyl]amino}-6-methyl-3,4′-bipyridin-2′-yl)acetamide]	> 99%
CC(=O)Nc1cc(-c2cnc(N)c(S(=O)(=O)NCC3CCCCC3)c2)ccn1 [Compound I-183, N-{6-amino-5-[(cyclohexylmethyl)sulfamoyl]-3,4′-bipyridin-2′-yl}acetamide]	> 99%
CC(=O)Nc1cc(-c2cncc(C=O)c2)ccn1 [Compound I-184, N-(5-formyl-3,4′-bipyridin-2′-yl)acetamide]	74%
CC(=O)Nc1cc(-c2cnc(C)c(NS(=O)(=O)c3ccc(F)cc3)c2)ccn1 [Compound I-185, N-(5-{[(4-fluorophenyl)sulfonyl]amino}-6-methyl-3,4′-bipyridin-2′-yl)acetamide]	> 99%
CC(=O)Nc1cc(-c2cnc(N)c(C(=O)NC34CC(C3)C4)c2)ccn1 [Compound I-187, 2′-acetamido-6-amino-N-(bicyclo[1.1.1]pent-1-yl)-3,4′-bipyridine-5-carboxamide]	> 99%
CC(=O)Nc1cc(-c2cncc(/C=C/C(=O)c3ccc(F)cc3)c2)ccn1 [Compound I-188, N-{5-[(1E)-3-(4-fluorophenyl)-3-oxoprop-1-en-1-yl]-3,4′-bipyridin-2′-yl}acetamide]	98%
CC(=O)Nc1cc(-c2cnc3[nH]ncc3c2)ccn1 [Compound I-189, N-[4-(1H-pyrazolo[3,4-b]pyridin-5-yl)pyridin-2-yl]acetamide]	> 99%
CC(=O)Nc1cc(-c2cncc(S(=O)(=O)NC34CC(C3)C4)c2)ccn1 [Compound I-190, N-[5-(bicyclo[1.1.1]pent-1-ylsulfamoyl)-3,4′-bipyridin-2′-yl]acetamide]	96%
CC(=O)Nc1cc(-c2cc(S(C)(=O)=O)c[n+]([O-])c2)ccn1 [Compound I-191, N-{4-[5-(methylsulfonyl)-1-oxidopyridin-3-yl]pyridin-2-yl}acetamide]	77%

Same assay, conditions: read-out: Percent Inhibition

Structure (SMILES)	inhibition at 1.11 µM
CC(=O)Nc1cc(-c2cnc(N)c(S(=O)(=O)N(C)C)c2)c(F)cn1 [Compound I-186]	> 99%
